# Reference: US5700779A (Cortech, Inc., priority 1996, dated 1997)
# Several values for one entry are separate records, joined by “and”; a condition that tells them apart may be missing. Equal values may be shown once.
# How the values were obtained:
# [1] = molecular target: T1, bradykinin type 2 (BK2) receptors (Rattus norvegicus, UniProt P25023); assay: standard rat uterus pA2 assay (in vitro B2 antagonist activity); conditions: for % Recovery: recovery of agonist response after washing 40 minutes following highest antagonist concentration; for activity in rat uterus functional tissue assay: summary of Table 1; for B2 pA2 (Rat Uterus): antagonist preincubated for 15 minutes
# T1 construct: Uterine horns were removed, placed under a 1 g resting tension in 4 mL tissue baths; from tissue; host or cells: rat uterine horns (Sprague-Dawley, stilbesterol-pretreated)
# T1 sequence (P25023 1-396): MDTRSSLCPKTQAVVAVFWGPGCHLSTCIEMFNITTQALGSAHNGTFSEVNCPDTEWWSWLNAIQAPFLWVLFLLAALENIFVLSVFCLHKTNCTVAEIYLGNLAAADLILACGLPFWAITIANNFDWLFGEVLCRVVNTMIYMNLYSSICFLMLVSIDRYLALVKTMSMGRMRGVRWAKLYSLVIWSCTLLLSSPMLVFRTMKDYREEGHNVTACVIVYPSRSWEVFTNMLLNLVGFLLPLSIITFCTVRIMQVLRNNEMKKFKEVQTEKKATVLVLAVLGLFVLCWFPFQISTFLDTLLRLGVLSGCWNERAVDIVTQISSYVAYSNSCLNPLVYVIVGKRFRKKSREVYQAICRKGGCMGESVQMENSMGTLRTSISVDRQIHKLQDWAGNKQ
# Experimental: The standard rat uterus pA2 assay was conducted as follows:
# Female Sprague-Dawley rats (200-250 g) were pretreated with stilbesterol (100 μg/kg) and killed 18 hours later by a blow on the head and exsanguinated. Uterine horns were removed, placed under a 1 g resting tension in 4 mL tissue baths containing De Jalon's solution at 31° C. and aerated. […] Antagonist potency was calculated according to the method of Arunlakshana and Schild (Arunlakshana, O., Schild, H. O., Br. J. Pharmacology 14 48-58 (1959)). […] The difference in pD2 values compared to concurrent control reflected the "percentage recovery" of agonist response.
# [2] = tested on: blood pressure responses to vasoactive agents; assay: selectivity of subcutaneous CP-0597, rat blood pressure; format: in vivo; conditions: 1.0 mg/kg s.c., thirty minutes after injection
# Experimental: (§1) Male Sprague-Dawley rats were anesthetized with pentobarbital and femoral arteries were cannulated for the recording of blood pressure. Both femoral veins in each animal were cannulated for the administration of test compounds. […] Following an equilibration period the specific experimental procedure was started.
# Animals were then treated with CP-0597 (1.0 mg/kg s.c.). Thirty minutes after the s.c. injection each vasoactive agent was retested and compared to pre-antagonist responses.
# [3] = molecular target: T2, BK2 receptors (Oryctolagus cuniculus, UniProt Q28642); assay: rabbit blood pressure BK2 ED50; format: in vivo
# T2 construct: from tissue; host or cells: live anesthetized New Zealand White rabbit (vascular system)
# T2 sequence (Q28642 1-367): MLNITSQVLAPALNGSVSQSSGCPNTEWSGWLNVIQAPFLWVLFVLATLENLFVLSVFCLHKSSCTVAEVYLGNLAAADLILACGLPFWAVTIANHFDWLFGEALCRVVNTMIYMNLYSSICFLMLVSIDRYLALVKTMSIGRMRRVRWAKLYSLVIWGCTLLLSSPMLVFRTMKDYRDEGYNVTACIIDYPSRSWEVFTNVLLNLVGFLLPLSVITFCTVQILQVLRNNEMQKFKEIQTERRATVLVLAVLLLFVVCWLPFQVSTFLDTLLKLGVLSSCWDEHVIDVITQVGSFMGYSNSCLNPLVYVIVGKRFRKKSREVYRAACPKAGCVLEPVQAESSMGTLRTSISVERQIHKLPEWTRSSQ
# Excerpt: (§2) Male New Zealand White rabbits were anesthetized with pentobarbital and femoral arteries were cannulated for the recording of blood pressure. Cannulae were placed in the femoral veins for the bolus injection or continuous infusion of compounds. […] Following an equilibration period the specific experimental procedure was started.
# [4] = tested on: blood pressure responses to vasoactive agents; assay: selectivity of intravenous CP-0597, rabbit blood pressure; format: in vivo; conditions: 0.1 μg/kg/min i.v.; for responses to the other vasoactive agents after antagonist: acetylcholine, norepinephrine, substance p, angiotensin, angiotensin II
# Excerpt: as §2
# [5] = tested on: response to Bradykinin; assay: duration of action of intravenously infused CP-0597, rabbit blood pressure; format: in vivo; conditions: one hour (60 min) after 0.1 μg/kg/min infusion stopped
# Experimental: as §2
# CP-0597 (0.1 μg/kg/min) was intravenously infused for the above mentioned selectivity experiments.
# [6] = tested on: response to Bradykinin; assay: duration of action of subcutaneous CP-0597, rat blood pressure; format: in vivo; conditions: for inhibition of responses to Bradykinin, duration of action (s.c.): rat
# Experimental: as §1
# Animals were then given subcutaneous injections of CP-0597 (1 and 3 mg/kg s.c.). […] At 1 mg/kg s.c. the responses were still 100% inhibited at 3 hours post injection. At 3 mg/kg s.c. the responses were still 100% inhibited at 5 hours post injection.
# [7] = molecular target: T3, BK1 receptors (Oryctolagus cuniculus, UniProt P48748); assay: LPS-treated rabbit blood pressure BK1 ED50; format: in vivo; conditions: for BK1 ED50: LPS-treated rabbit, i.v. infusion
# T3 construct: upregulation of BK1 receptors in the vascular system; from tissue; host or cells: live anesthetized LPS-pretreated New Zealand White rabbit (vascular system)
# T3 sequence (P48748 1-352): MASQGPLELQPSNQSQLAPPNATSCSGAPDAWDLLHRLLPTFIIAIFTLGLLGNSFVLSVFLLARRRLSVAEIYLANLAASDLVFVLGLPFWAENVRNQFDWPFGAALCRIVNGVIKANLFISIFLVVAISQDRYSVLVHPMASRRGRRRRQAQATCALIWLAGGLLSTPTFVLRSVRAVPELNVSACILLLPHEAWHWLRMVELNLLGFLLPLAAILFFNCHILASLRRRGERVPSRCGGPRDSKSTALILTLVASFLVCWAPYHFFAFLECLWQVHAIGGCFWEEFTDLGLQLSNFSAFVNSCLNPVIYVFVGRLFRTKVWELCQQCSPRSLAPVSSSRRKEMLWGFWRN
# Experimental: as §2
# Stimulation of both pre-existing BK2 and induced BK1, receptors produces hypotension. […] Both agonists were tested in the absence and then in the presence of increasing doses of CP-0597 (1, 3, and 10 μg/kg/min).
# [8] = tested on: response to Bradykinin; assay: duration of action of i.v. bolus injections of CP-0597, rat blood pressure; format: in vivo
# Experimental: as §1
# At 3 μg/kg the response was ca. 50% inhibited and had returned to control by 30 minutes. At […] and 30 μg/kg the response was 100% inhibited with a 50% return to control level by 60 minutes and full recovery of response by 90 minutes.
# [9] = tested on: guinea pig ileum; assay: activity on guinea pig ileum tissue
# [10] = i.v. bolus 10 μg/kg (text: 20%; Table 3: 10 μg/kg/min)
# [11] = i.v. bolus 30 μg/kg (Table 3: 30 μg/kg/min)
substance,measurement,setting,value
D-Arg-Arg-Hyp-Hyp-Gly-Thi-Ser-D-Tic-NChg-Arg [Compound 17],% Recovery,[1],60%
same,activity in rat uterus functional tissue assay,[1],highly potent antagonists
D-Arg-Arg-Pro-Hyp-Gly-Thi-Ser-D-Cpg-NChg-Arg [Compound 10],% Recovery,[1],75%
D-Arg-Arg-Pro-Hyp-Gly-Thi-Ser-D-NBng-NChg-Arg [Compound 7],B2 pA2 (Rat Uterus),[1],Agonist
same,activity in rat uterus functional tissue assay,[1],agonists
D-Arg-Arg-Pro-Hyp-Gly-Thi-Ser-D-NBng-Oic-Arg [Compound 6],% Recovery,[1],93%
D-Arg-Arg-Pro-Hyp-Gly-Thi-Ser-D-Phe-NChg-Arg [Compound 9],% Recovery,[1],87%
D-Arg-Arg-Pro-Hyp-Gly-Thi-Ser-D-Phe-NPhg-Arg [Compound 16],% Recovery,[1],60%
D-Arg-Arg-Pro-Hyp-Gly-Thi-Ser-D-Tic-NChg-Arg [Compound 5],response to Bradykinin after antagonist,[2],antagonized
same,responses to the other vasoactive agents after antagonist,[2]; 1 mg/kg,not affected
same,responses to the other vasoactive agents after antagonist,"[2]; listed as CP-0597, 1 mg/kg",unaffected
same,ED50 blocking bradykinin at BK2 receptors in live rabbits,[3],0.051 µg/kg/min
same,BK2 ED50,[3]; i.v. infusion,29.2 pmol/kg/min
same,response to Bradykinin after antagonist,[4],antagonized
same,responses to the other vasoactive agents after antagonist,[4],not affected
same,responses to the other vasoactive agents after antagonist,[4]; listed as CP-0597,unaffected
same,"inhibition of the response to Bradykinin, duration of action (i.v. infusion)",[5],100%
same,"inhibition of responses to Bradykinin, duration of action (s.c.)","[6]; 1 mg/kg s.c., 3 hours post injection",100%
same,"inhibition of responses to Bradykinin, duration of action (s.c.)","[6]; 3 mg/kg s.c., 5 hours post injection",100%
same,blockage of agonist effect,"[6]; up to 5 hours after a subcutaneous dose (3 mg/Kg, rat)",complete blockage
same,BK1 ED50,[7],1.7 nmol/kg/min
same,BK1 ED50,"[7]; des-Arg9 Bradykinin, listed as CP-0597",2.9 ± 0.92 µg/kg/min and 2.9 µg/kg/min
same,BK1 blocking activity in live rabbits,[7]; rabbit,2.9 µg/kg/min
same,time of return to control (100% recovery),[8]; i.v. bolus 3 μg/kg (Table 3: 3.0 μg/kg/min),≤ 30 min
same,inhibition of response to Bradykinin,[8]; [10],100%
same,time of 50% recovery,[8]; [10],≤ 60 min
same,time of 100% recovery,[8]; [10],≤ 90 min
same,inhibition of response to Bradykinin,[8]; [11],100%
same,time of 50% recovery,[8]; [11],≤ 60 min
same,time of 100% recovery,[8]; [11],≤ 90 min
same,% Recovery,[1],71%
same,activity in rat uterus functional tissue assay,[1],highly potent antagonists
D-Arg-Arg-Pro-Hyp-Gly-Thi-Ser-D-Tic-NCpg-Arg [Compound 8],% Recovery,[1],56%
same,activity in rat uterus functional tissue assay,[1],highly potent antagonists
D-Arg-Arg-Pro-Hyp-Gly-Thi-Ser-D-Tic-NMch-Arg [Compound 12],activity on guinea pig ileum,[9],antagonist activity
same,B2 pA2 (Rat Uterus),[1],Agonist
same,activity in rat uterus functional tissue assay,[1],agonists
D-Arg-Arg-Pro-Hyp-Gly-Thi-Ser-D-Tic-NPhg-Arg [Compound 15],% Recovery,[1],54%
same,activity in rat uterus functional tissue assay,[1],highly potent antagonists
